Test results as given in US12520844B2 (Bayer Aktiengesellschaft, priority 2020, dated 2026).

Assay: Measurement of Log P values by HPLC on reversed phase columns (EEC directive 79/831 Annex V.A8)
Assay type: physicochemical
Experimental: Measurement of Log P values as provided herein was performed according to EEC directive 79/831 Annex V.A8 by HPLC (High Performance Liquid Chromatography) on reversed phase columns with the following methods: • ^[a] Log P value is determined by measurement of LC-UV, in an acidic range, with 0.1% formic acid in water and acetonitrile as eluent (linear gradient from 10% acetonitrile to 95% acetonitrile). • ^[b] Log P value is determined by measurement of LC-UV, in a neutral range, with 0.001 molar ammonium acetate solution in water and acetonitrile as eluent (linear gradient from 10% acetonitrile to 95% acetonitrile). • ^[c] Log P value is determined by measurement of LC-UV, in an acidic range, with 0.1% phosphoric acid and acetonitrile as eluent (linear gradient from 10% acetonitrile to 95% acetonitrile).
If more than one Log P value is available within the same method, all the values are given and separated by “+”.
Calibration was done with straight-chain alkan2-ones (with 3 to 16 carbon atoms) with known Log P values (measurement of Log P values using retention times with linear interpolation between successive alkanones). Lambda-max-values were determined using UV-spectra from 200 nm to 400 nm and the peak values of the chromatographic signals

| Structure (SMILES) | LogP |
| --- | --- |
| Cc1ncc(Oc2cccc(C3CC3)c2F)c(C(=O)NC2CC(C)(C)Oc3cc(Cl)c(F)cc32)n1 (stereo not shown) [Compound I-080] | 4.87^[a] |
| Cc1ncc(Oc2cccc(C3CC3)c2F)c(C(=O)NCCOc2ccc(C(F)(F)F)cc2Cl)n1 [Compound I-081] | 4.52^[a] |
| COc1cccc(Oc2nnc(C3CC3)nc2C(=O)NCC(F)(F)c2ccc(C)cc2C)c1 [Compound I-082] | 4.19^[a] |
| Cc1ccc(C(F)(F)CNC(=O)c2nc(C)ncc2Oc2cccc(C)c2F)c(C)c1 [Compound I-083] | 4.07^[a] |
| COc1cccc(Oc2cnc(C)nc2C(=O)NCC(F)(F)c2ccc(C)cc2C)c1F [Compound I-084] | 3.71^[a] |
| Cc1ccc(C(F)(F)CNC(=O)c2nc(C)ncc2Oc2cccc(Br)c2)c(C)c1 [Compound I-085] | 4.28^[a] |
| Cc1ncc(Oc2cccc(C3CC3)c2F)c(C(=O)NCCn2cc(Cl)cn2)n1 [Compound I-086] | 2.88^[a] |
| Cc1ncc(Oc2cccc(C3CC3)c2F)c(C(=O)NCCc2ccc3c(c2)CCO3)n1 [Compound I-087] | 3.43^[a] |
| Cc1ncc(Oc2cccc(C3CC3)c2F)c(C(=O)N(Cc2ccccc2)OCC(C)C)n1 [Compound I-088] | 4.72^[a] |
| COc1cc(C(F)CNC(=O)c2nc(C)ncc2Oc2cccc(C3CC3)c2F)ccc1Cl (stereo not shown) [Compound I-089] | 3.93^[a] |
| Cc1ccc(C(F)(F)CNC(=O)c2nc(C)ncc2Oc2cccc([N+](=O)[O-])c2)c(C)c1 [Compound I-090] | 3.75^[a] |
| Cc1ccc(C(F)(F)CNC(=O)c2nc(C)ncc2Oc2cccc3c2CCC3)c(C)c1 [Compound I-092] | 4.49^[a] |
| Cc1ccc(C(F)(F)CNC(=O)c2nc(C)ncc2Oc2ccc(C)c(Cl)c2)c(C)c1 [Compound I-093] | 4.54^[a] |
| Cc1ccc(C(F)(F)CNC(=O)c2nc(C)ncc2Oc2cccc(OC(F)(F)F)c2)c(C)c1 [Compound I-094] | 4.50^[a] |
| Nc1ncc(Oc2cccc(C(F)(F)F)c2)c(C(=O)NCCc2ccc(Br)cc2)n1 [Compound I-095] | 4.05^[a] |
| CC(NC(=O)c1nc(F)ncc1Oc1cccc(C(F)(F)F)c1)c1cccc(C(F)(F)F)c1 (stereo not shown) [Compound I-096] | 2.88^[a] |
| Cc1ncc(Oc2cccc(C3CC3)c2F)c(C(=O)NOCc2ccc(C#N)cc2)n1 [Compound I-097] | 2.87^[a] |
| Cc1ncc(Oc2cccc(C3CC3)c2F)c(C(=O)NCCc2ccc(OC(C)C)nc2)n1 [Compound I-099] | 3.44^[a] |
| Cc1ncc(Oc2cccc(C3CC3)c2F)c(C(=O)NOCc2ccc(OC(F)(F)F)cc2)n1 [Compound I-100] | 3.89^[a] |
| C#Cc1cccc(Oc2cnc(C)nc2C(=O)NCC(F)(F)c2ccc(C)cc2C)c1 [Compound I-102] | 4.01^[a] |
| Cc1ccc(C(F)(F)CNC(=O)c2nc(C)ncc2Oc2cccc(C3CC3)c2F)c(C)c1 [Compound I-103] | 4.44^[a] |
| Cc1ccc(C(F)(F)CNC(=O)c2nc(C)ncc2Oc2ccc3c(c2)CCC3)c(C)c1 [Compound I-104] | 4.56^[a] |
| Cc1ccc(/C(F)=C/NC(=O)c2nc(C3CC3)nnc2Oc2cccc(Cl)c2F)c(C)c1 [Compound I-105] | 5.36^[a] |
| Cc1ccc(C(F)(F)CNC(=O)c2nc(C)ncc2Oc2ccc3ccccc3c2)c(C)c1 [Compound I-106] | 4.35^[a] |
| Cc1ccc(/C(F)=C/NC(=O)c2nc(C3CC3)nnc2Oc2cccc(C)c2F)c(C)c1 [Compound I-107] | 4.85^[a] |

| Structure (SMILES) | LogP |
| --- | --- |
| Cc1ccc(C(F)(F)CNC(=O)c2nc(C)ncc2Oc2ccc(Cl)c(C(F)(F)F)c2)c(C)c1 [Compound I-108] | 4.72^[a] |
| Cc1ccc(/C(F)=C\NC(=O)c2nc(C3CC3)nnc2Oc2cccc(Cl)c2F)c(C)c1 [Compound I-109] | 5.00^[a] |
| Cc1nnc(Oc2cccc(C(F)(F)F)c2)c(C(=O)NCC2(c3ccc(Cl)cc3)COC2)n1 [Compound I-110] | 3.35^[a] |
| CCN(CCc1ccccc1)C(=O)c1nc(C)ncc1Oc1cccc(C2CC2)c1F [Compound I-111] | 4.04^[a] |
| Cc1ccc(/C(F)=C/NC(=O)c2nc(C3CC3)nnc2Oc2cccc(C3CC3)c2F)c(C)c1 [Compound I-112] | 5.20^[a] |
| Cc1ncc(Oc2cccc(C3CC3)c2F)c(C(=O)NC2CCOc3c(C)cccc32)n1 (stereo not shown) [Compound I-113] | 4.02^[a] |
| Cc1ncc(Oc2cccc(C3CC3)c2F)c(C(=O)NC2CCCc3ccc(Cl)cc32)n1 (stereo not shown) [Compound I-114] | 4.46^[a] |
| C=Cc1cccc(Oc2cnc(C)nc2C(=O)NCC(F)(F)c2ccc(C)cc2C)c1 [Compound I-115] | 4.17^[a] |
| COc1ccc2c(c1)C(NC(=O)c1nc(C)ncc1Oc1cccc(C3CC3)c1F)C(OC)CC2 (stereo not shown) [Compound I-116] | 3.99^[a] |
| Cc1ccc(C(F)(F)CNC(=O)c2nc(C)nnc2Oc2cccc(C3CC3)c2)c(C)c1 [Compound I-117] | 4.33^[a] |
| Cc1ccc(C(F)(F)CNC(=O)c2nc(C)ncc2Oc2cnc3c(c2)CCC3)c(C)c1 [Compound I-118] | 2.78^[a] |
| Cc1nnc(Oc2cccc(C(F)(F)F)c2)c(C(=O)NC(C)c2cccc(C(F)(F)F)c2)n1 (stereo not shown) [Compound I-119] | 3.77^[a] |
| Cc1ccc(C(F)(F)CNC(=O)c2nc(C)ncc2Oc2cnc3ccccc3c2)c(C)c1 [Compound I-120] | 3.40^[a] |
| Cc1ccc(C(F)(F)CNC(=O)c2nc(C3CC3)nnc2Oc2cccc(C(F)(F)F)c2)c(C)c1 [Compound I-121] | 4.74^[a] |
| Cc1ccc(C(F)(F)CNC(=O)c2nc(C)ncc2Oc2cccc(-n3ccc(C(F)(F)F)n3)c2)c(C)c1 [Compound I-122] | 4.54^[a] |
| CCON(Cc1ccccc1)C(=O)c1nc(C)ncc1Oc1cccc(C2CC2)c1F [Compound I-123] | 3.97^[a] |
| Cc1ncc(Oc2cccc(C3CC3)c2F)c(C(=O)NCCc2ccc3c(c2)OCO3)n1 [Compound I-124] | 3.34^[a] |
| CSc1cccc(Oc2cnc(C)nc2C(=O)NCC(F)(F)c2ccc(C)cc2C)c1 [Compound I-126] | 4.11^[a] |
| Cc1ccc(C(F)(F)CNC(=O)c2nc(C)ncc2Oc2ccc3c(c2)CCO3)c(C)c1 [Compound I-128] | 3.59^[a] |
| Cc1ccc(C(F)(F)CNC(=O)c2nc(C)ncc2Oc2ccc(F)c(Cl)c2)c(C)c1 [Compound I-129] | 4.20^[a] |
| Cc1ccc(C(F)(F)CNC(=O)c2nc(C3CC3)nnc2Oc2cccc(C(F)(F)F)c2)c(Cl)c1 [Compound I-130] | 4.66^[a] |
| Cc1ccc(C(F)(F)CNC(=O)c2nc(C3CC3)nnc2Oc2cccc(Cl)c2F)c(C)c1 [Compound I-131] | 4.62^[a] |
| Cc1ccc(C(F)=CNC(=O)c2nc(C3CC3)nnc2Oc2cccc(Br)c2)c(C)c1 [Compound I-132] | 4.97^[a] |
| Cc1ncc(Oc2cccc(C3CC3)c2F)c(C(=O)NCCc2csc(C)c2C)n1 [Compound I-134] | 4.10^[a] |
